Experimental findings from patent publication US9505749B2, “Quinazolinone compounds and derivatives thereof” (AMGEN INC., priority 2012, dated 2016) are described below.

Like-named read-outs stand apart in the source and are kept apart here.

One assay has as its target PARP1 (Homo sapiens (Human), UniProt P09874). Kind of assay: PARP1 biochemical assay (Trevigen kit). An excerpt: PARP1 biochemical assay was purchased as a kit from Trevigen (cat.#4676-096-K) and used per manufacturers recommendations.
Assay [1] has as its system 8×TCF promoter-driven Firefly luciferase (Wnt reporter) in DLD-1 colorectal cells. Kind of assay: DLD-1-STF assay, constitutively activated Wnt pathway reporter. The format is cell-based. Conditions: Homo sapiens. Here is the method: DLD-1 colorectal cells engineered with an 8×TCF promoter-driven Firefly (FF) luciferase gene (Wnt reporter) along with an EF1a promoter-driven Renilla (RN) luciferase gene (control reporter) were used to measure the potency of tankyrase compounds in the context of the constitutively activated Wnt pathway due to mutated APC in colorectal cancer cells. The engineered DLD-1 cells were plated (45 μL) at a density of 10,000 cells/well in black, clear-bottom, 96-well View plates (PerkinElmer) in normal growth medium (RPMI with 10% FBS with no antibiotics). Tankyrase inhibitors (5 μL) were transferred to cells from a three-fold serially diluted compound plate. A 10-point dilution series was tested starting at a concentration (10 μM final concentration in assay). Column 6 contained only DMSO and served as the “HI” control. A potent Tankyrase inhibitor was used at a final concentration of 10 uM in column 12 which served as the “LO” control. […] The Dual-Glo Reagents (Promega) were added as directed by manufacturer to assay the FF and RN luciferase activity. Luciferase activity was measures using the EnVision multilabel plate reader (PerkinElmer).

The next assay addresses PARP2 (Homo sapiens (Human), UniProt Q9UGN5). Kind of assay: PARP2 biochemical assay (BPS kit).
Assay [2] has as its system total β-catenin in SW480 colorectal cells. As to the kind of experiment: Total β-catenin MSD 96-well plate assay for SW480 cells. Conditions: Homo sapiens, SW480, read-out: SW480-Total beta-catenin (TBC) IC50 IP.
The test system of assay [3] is Axin2 accumulation in SW480 cells. Kind of assay: Axin2 384 immunofluorescence assay. The assay is classed as cell-based. Conditions: Homo sapiens; SW480 cells, 24 hours; read-out: Axin2 384 IF EC50.
Assay [4] has as its target 6×HIS-tankyrase 2 (946-1162) (Homo sapiens (Human), UniProt Q9H2K2). Kind of assay: Tankyrase 2 biochemical assay (AlphaLisa, PARsylation). Conditions: 250 nM NAD; read-out: TNKS2 IC50. (Bead proximity is the source of the signal in Alpha formats.)
Assay [5] has as its target 6×HIS-tankyrase1 (1091-1325) (Homo sapiens (Human), UniProt O95271). Kind of assay: Tankyrase 1 biochemical assay (AlphaLisa, PARsylation). Conditions: 400 nM NAD, 60 minutes at RT; read-out: TNKS1 IC50.
[6] abbreviates: DLD-1, read-out: DLD1-STF-FF/RL*100 IC50.

Chain of PARP1 (P09874 whole entry): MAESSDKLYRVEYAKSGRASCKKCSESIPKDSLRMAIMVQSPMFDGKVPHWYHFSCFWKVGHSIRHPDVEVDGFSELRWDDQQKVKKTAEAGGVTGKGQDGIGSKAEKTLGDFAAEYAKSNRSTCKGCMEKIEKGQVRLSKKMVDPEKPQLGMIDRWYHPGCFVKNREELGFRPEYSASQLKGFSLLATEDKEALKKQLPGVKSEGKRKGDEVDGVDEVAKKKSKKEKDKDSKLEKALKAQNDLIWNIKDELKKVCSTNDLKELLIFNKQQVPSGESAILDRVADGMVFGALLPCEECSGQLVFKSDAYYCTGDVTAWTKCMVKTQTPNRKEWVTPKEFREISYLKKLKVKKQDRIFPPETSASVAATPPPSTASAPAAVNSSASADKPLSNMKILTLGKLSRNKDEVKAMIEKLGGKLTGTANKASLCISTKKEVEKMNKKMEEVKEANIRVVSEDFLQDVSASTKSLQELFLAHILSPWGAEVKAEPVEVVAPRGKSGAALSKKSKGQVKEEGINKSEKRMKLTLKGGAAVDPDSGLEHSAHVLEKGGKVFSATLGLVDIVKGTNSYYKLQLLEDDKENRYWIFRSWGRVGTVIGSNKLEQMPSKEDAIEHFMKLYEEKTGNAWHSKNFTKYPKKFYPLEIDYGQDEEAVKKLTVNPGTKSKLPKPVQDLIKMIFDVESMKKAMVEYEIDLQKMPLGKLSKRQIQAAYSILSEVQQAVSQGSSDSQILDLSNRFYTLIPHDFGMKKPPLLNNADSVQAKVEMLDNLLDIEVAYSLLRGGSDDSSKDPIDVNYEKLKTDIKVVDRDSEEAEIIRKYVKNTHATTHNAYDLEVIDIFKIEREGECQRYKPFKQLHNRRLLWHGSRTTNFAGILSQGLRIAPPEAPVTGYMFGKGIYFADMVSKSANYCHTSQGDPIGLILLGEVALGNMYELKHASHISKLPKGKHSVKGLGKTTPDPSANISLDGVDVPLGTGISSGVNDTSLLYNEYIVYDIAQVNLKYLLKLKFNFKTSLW
Chain of PARP2 (Q9UGN5 whole entry): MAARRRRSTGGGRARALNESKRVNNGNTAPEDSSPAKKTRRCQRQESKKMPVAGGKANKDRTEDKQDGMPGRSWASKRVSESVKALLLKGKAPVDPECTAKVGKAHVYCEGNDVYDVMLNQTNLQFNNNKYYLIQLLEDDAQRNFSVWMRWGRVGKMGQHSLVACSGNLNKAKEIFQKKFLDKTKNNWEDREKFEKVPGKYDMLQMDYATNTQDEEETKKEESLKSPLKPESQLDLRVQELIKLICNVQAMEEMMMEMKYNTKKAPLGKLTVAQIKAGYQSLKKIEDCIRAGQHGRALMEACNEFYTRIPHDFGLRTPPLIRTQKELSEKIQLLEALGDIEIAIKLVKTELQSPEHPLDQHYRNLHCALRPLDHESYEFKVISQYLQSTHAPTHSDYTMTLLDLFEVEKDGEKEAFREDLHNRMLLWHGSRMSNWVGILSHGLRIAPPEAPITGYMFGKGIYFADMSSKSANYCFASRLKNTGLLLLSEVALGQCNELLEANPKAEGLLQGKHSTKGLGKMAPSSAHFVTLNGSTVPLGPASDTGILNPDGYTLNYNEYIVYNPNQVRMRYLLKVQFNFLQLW
Chain of 6×HIS-tankyrase1 (1091-1325) (O95271 1091-1325): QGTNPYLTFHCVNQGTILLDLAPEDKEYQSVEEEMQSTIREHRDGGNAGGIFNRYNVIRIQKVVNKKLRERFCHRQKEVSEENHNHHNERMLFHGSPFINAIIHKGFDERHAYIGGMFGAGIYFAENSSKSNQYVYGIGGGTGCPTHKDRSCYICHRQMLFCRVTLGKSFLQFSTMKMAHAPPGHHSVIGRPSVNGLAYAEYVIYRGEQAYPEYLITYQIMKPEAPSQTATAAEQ
Chain of 6×HIS-tankyrase 2 (946-1162) (Q9H2K2 946-1162): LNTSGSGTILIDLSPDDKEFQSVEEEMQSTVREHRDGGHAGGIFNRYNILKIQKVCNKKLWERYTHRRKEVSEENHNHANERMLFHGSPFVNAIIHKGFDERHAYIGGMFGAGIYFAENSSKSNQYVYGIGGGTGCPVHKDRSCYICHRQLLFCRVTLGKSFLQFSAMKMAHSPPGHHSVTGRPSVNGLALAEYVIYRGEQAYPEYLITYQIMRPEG

In the case of `O=C(CCSc1nc2c(c(=O)[nH]1)CCCC2)N[C@H]1CC[C@H](c2nnc(-c3ccccc3)o2)CC1` [Example 115, 3-((4-oxo-3,4,5,6,7,8-hexahydroquinazolin-2-yl)thio)-N-(trans-4-(5-phenyl-1,3,4-oxadiazol-2-yl)cyclohexyl)propanamide], the IC50 was found to be 3860 nM against PARP1, 1.3 nM in assay [1] (setting [6]), 1120 nM against PARP2 and 11 nM in assay [2]. For the same compound, the EC50 (as a rule, the concentration that produces a half-maximal response) in assay [3] stood at 14.4 nM.

For the compound `O=C(CCCSc1nc2ccccc2c(=O)[nH]1)N[C@H]1CC[C@H](c2nnc(-c3ccccc3)o2)CC1` [Example 110, 4-((4-oxo-3,4-dihydroquinazolin-2-yl)thio)-N-((1r,4r)-4-(5-phenyl-1,3,4-oxadiazol-2-yl)cyclohexyl)butanamide], the IC50 on PARP1 was 376 nM; in assay [1] (setting [6]), 1.78 nM; against PARP2, 1440 nM; in assay [2], 104 nM. In addition, the EC50 in assay [3] stood at 132 nM.

Consider `N#Cc1ccc(O[C@H]2CC[C@H](NC(=O)CCCc3nc4ccccc4c(=O)[nH]3)CC2)cc1Cl` [Example 64, N-(trans-4-(3-chloro-4-cyanophenoxy)cyclohexyl)-4-(4-oxo-3,4-dihydro-2-quinazolinyl)butanamide], for which the IC50 on PARP1 came out at 257 nM; in assay [1] (DLD-1 cells, 40 to 48 hours, read-out: DLD1-STF-FF/RL*100 IC50) it was 1.26 nM; in assay [4], 0.52 nM; in assay [5], 1.05 nM; against PARP2, 288 nM; in assay [2], 26.6 nM. In addition, the EC50 in assay [3] came to 60.9 nM.

As for `O=C(CCSc1nc2ccccc2c(=O)[nH]1)N[C@H]1CC[C@H](Oc2ccccn2)CC1` [Example 107, 3-((4-oxo-3,4-dihydroquinazolin-2-yl)thio)-N-((1 r,4r)-4-(pyridin-2-yloxy)cyclohexyl) propanamide], the IC50 was more than 85000 nM against PARP1, 1.33 nM in assay [1] (setting [6]), 3350 nM at PARP2 and 15.4 nM in assay [2]. Besides, the half-maximal effective concentration (EC50) in assay [3] came out at 16.6 nM.

In the case of `O=C(CCSc1nc2ccccc2c(=O)[nH]1)N[C@H]1CC[C@H](Oc2ccncc2)CC1` [Example 108, 3-((4-oxo-3,4-dihydroquinazolin-2-yl)thio)-N-((1 r,4r)-4-(pyridin-4-yloxy)cyclohexyl) propanamide], the IC50 against PARP1 came out at 2760 nM; in assay [1] (setting [6]), 0.682 nM; on PARP2 it was 3220 nM; in assay [2] it was 6.9 nM. For the same compound, the EC50 in assay [3] stood at 6.79 nM.
